# Paper PMC7849018 (Antimicrobial Agents and Chemotherapy, 2021)
# Entries after “also recorded” stand apart in the source; their conditions may differ. Like-named read-outs stand apart in the source and are kept apart here.
# Columns and labels:
# [1] = target: human mitochondrial POLRMT (Homo sapiens, UniProt O00411); experiment: Single nucleotide incorporation assay; format: biochemical; conditions: 500 μM nucleotide analog; relative to natural NTP at same concentration
# [2] = target: human DNA polymerase beta (Homo sapiens, UniProt P06746); experiment: Enzymatic inhibition assay; format: biochemical; conditions: read-out: IC50 DNA pol β
# [3] = target: T1, human DNA polymerase gamma (Homo sapiens, UniProt P54098); experiment: Enzymatic inhibition assay; format: biochemical; conditions: read-out: IC50 DNA pol γ
# T1 sequence (P54098 1-1239): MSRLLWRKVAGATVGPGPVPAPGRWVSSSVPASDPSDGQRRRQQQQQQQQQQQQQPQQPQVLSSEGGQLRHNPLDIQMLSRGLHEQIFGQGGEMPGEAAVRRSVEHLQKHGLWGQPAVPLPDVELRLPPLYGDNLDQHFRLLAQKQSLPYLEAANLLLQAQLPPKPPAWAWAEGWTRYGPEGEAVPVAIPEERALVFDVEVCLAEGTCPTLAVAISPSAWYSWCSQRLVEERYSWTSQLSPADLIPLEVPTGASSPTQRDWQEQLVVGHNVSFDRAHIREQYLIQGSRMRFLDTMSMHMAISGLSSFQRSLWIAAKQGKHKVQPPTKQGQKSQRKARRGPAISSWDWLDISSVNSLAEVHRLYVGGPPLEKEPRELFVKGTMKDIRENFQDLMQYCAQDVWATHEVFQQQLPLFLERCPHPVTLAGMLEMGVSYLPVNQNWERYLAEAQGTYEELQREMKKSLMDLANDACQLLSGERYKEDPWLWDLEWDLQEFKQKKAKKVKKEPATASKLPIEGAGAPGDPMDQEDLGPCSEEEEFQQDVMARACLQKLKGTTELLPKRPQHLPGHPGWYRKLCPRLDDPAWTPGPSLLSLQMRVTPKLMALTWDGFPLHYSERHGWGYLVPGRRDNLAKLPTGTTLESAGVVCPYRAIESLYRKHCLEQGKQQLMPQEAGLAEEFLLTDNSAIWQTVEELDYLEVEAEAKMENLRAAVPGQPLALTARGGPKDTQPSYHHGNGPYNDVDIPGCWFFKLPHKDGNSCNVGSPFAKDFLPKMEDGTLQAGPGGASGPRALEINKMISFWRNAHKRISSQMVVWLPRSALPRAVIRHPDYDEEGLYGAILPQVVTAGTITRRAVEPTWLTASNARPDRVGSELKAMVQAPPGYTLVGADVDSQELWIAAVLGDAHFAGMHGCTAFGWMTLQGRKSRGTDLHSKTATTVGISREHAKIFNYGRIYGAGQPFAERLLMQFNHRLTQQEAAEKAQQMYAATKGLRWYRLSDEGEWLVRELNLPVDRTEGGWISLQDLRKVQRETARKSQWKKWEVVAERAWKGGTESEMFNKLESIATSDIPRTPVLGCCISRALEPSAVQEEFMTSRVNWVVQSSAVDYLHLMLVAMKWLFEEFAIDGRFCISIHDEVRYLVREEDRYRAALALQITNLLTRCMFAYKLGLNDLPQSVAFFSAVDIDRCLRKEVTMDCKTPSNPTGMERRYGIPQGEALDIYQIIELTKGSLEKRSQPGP
# T1 sequence (Q9UHN1 26-485 partner limits assumed): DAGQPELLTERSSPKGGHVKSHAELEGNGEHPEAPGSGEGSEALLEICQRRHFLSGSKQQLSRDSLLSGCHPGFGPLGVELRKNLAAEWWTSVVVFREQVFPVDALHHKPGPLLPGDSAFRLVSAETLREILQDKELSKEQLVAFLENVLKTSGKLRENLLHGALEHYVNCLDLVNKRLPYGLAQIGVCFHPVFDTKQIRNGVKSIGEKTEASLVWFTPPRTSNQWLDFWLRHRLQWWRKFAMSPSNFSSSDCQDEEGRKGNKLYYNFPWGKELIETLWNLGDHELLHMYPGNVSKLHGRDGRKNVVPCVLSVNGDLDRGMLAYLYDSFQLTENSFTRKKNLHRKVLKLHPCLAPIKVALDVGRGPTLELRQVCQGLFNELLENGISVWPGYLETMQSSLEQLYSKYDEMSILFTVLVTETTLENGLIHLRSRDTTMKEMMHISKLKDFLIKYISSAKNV
# human POLRMT = human POLRMT (Homo sapiens, UniProt O00411); experiment: Enzymatic inhibition assay; format: biochemical; conditions: read-out: IC50 POLRMT pol
# [4] = target: T2, human mitochondrial DNA Pol γ (Homo sapiens, UniProt P54098); experiment: Single nucleotide incorporation assay; format: biochemical; conditions: 50 μM nucleotide analog; relative to natural dNTP at same concentration
# T2 sequence (P54098 1-1239): T1 sequence (P54098 1-1239)
# T2 sequence (Q9UHN1 26-485 partner limits assumed): T1 sequence (Q9UHN1 26-485 partner limits assumed)
# in vitro [5] = conditions: human, CC50, Myeloid progenitors; 11- to 14-day treatment
# [6] = tested on: COX-1 (mitochondrial DNA-encoded cytochrome c oxidase, complex IV) protein level; experiment: Mitochondrial protein synthesis assay; format: cell-based; conditions: human, PC-3 cells
# [7] = tested on: SDH-A (nuclear DNA-encoded succinate dehydrogenase, complex II) protein level; experiment: Mitochondrial protein synthesis assay; format: cell-based; conditions: human, PC-3 cells
# [8] = Cellular ATP alongside the mitochondrial protein synthesis assay; conditions: human, PC-3 cells
# [9] = Mitochondrial respiration; format: cell-based; conditions: human, PC-3 cells, 3-day treatment
# [10] = Mitochondrial respiration; format: cell-based; conditions: human; for CC50 at 3 day: PHH cells (primary human hepatocytes); for CC50 at 3 days: primary human hepatocytes (PHH)
# [11] = Mitochondrial respiration; format: cell-based; conditions: human, HepG2 cells, 3-day treatment
# [12] = tested on: mitochondrial DNA (mtDNA) in HepG2 cells; experiment: Mitochondrial DNA content by qPCR; format: cell-based, human; conditions: continual treatment for 10 days
# PC-3 = conditions: read-out: 5-day CC50 PC-3 cells Anaerobic (glucose)
# [13] = Mitochondrial respiration; format: cell-based; conditions: human, RPTEC cells, RPTECs, 3-day treatment
# HepG2 = conditions: read-out: 5-day CC50 HepG2 cells Anaerobic (glucose)
# in vitro [14] = conditions: human
# in vitro [15] = conditions: human; remark: listed apart in the source
# [16] = hospitalized patients with COVID-19; RDV for up to 10 days; cited from earlier work
# Stimulated PBMC = conditions: 5-day treatment
# [17] = cited from earlier work
# [18] = tested on: PC-3 galactose-adapted cell line; conditions: CC50 galactose versus glucose culture
# HepG2 cells = experiment: Intracellular reactive oxygen species level; format: cell-based, human
# [19] = cited from earlier work; remark: listed apart in the source
# [20] = moderate COVID-19, cited from earlier work
# [21] = tested on: HepG2 galactose-adapted cell line; conditions: read-out: 5-day CC50 HepG2 cells Aerobic (galactose)
# [22] = tested on: SARS-CoV-2 in human airway epithelial cells (HAE); conditions: read-out: EC50 against SARS-CoV-2; cited from earlier work
# [23] = pH 7.4, 3-day CC50 Spare respiration
# [24] = healthy subjects, repeat-dose study 150 mg once daily, reversible
# [25] = humans, repeated dosing of 150 mg
# human mitochondrial POLRMT, sequence (O00411 42-1230): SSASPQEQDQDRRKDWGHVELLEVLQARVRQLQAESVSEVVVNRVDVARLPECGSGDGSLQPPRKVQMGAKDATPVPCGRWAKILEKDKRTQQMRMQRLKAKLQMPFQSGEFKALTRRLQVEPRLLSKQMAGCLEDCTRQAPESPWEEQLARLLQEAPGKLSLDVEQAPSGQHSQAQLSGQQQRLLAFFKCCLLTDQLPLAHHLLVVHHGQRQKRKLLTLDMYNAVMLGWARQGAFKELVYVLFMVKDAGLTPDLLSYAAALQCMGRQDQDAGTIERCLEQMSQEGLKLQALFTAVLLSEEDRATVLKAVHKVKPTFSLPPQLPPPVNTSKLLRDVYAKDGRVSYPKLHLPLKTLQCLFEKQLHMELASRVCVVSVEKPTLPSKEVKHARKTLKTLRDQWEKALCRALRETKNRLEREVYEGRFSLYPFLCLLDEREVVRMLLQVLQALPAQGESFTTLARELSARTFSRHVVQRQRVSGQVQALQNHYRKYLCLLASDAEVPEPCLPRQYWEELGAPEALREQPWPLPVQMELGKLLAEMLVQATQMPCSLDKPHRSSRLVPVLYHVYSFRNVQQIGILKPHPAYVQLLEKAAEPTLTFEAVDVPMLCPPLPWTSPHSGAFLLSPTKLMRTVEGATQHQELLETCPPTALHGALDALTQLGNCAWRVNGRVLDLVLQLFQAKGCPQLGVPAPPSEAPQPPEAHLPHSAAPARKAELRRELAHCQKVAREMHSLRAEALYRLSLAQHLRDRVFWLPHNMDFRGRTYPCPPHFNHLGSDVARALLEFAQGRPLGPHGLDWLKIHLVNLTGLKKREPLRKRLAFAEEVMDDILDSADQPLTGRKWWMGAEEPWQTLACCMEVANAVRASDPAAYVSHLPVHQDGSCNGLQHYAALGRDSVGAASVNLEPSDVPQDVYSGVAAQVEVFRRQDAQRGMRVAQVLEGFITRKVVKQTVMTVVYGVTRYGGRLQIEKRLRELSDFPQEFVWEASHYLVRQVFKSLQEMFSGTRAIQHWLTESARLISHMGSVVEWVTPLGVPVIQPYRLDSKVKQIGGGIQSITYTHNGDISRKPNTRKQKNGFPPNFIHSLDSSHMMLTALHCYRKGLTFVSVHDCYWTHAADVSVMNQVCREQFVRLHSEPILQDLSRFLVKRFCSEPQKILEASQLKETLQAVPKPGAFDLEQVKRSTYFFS
# human POLRMT, sequence (O00411 42-1230): as above
smiles,measurement,setting,value
"COc1nc(N)nc2c1ncn2[C@@H]1O[C@H](COP(=O)(N[C@@H](C)C(=O)OCC(C)(C)C)Oc2cccc3ccccc23)[C@@H](O)[C@@]1(C)O (some centres unmarked) [2’CMe-GTP, 2′CMe-GTP]","Rate of incorporation (% of natural dNTP or NTP), mtRNA polymerase",[1],92% ± 33%
Cc1cn([C@H]2CC[C@@H](COP(=O)(O)OP(=O)(O)OP(=O)(O)O)O2)c(=O)[nH]c1=O [3′dTTP],IC50,[2],1.9 µM
same,IC50,[3],1.2 µM
"Nc1nc2c(ncn2[C@@H]2O[C@H](COP(=O)(O)OP(=O)(O)OP(=O)(O)O)C[C@H]2O)c(=O)[nH]1 [3′deoxy GTP, 3′-deoxy GTP]",IC50,human POLRMT,4.2 µM
"CC(C)C(=O)OC[C@@]1(N=[N+]=[N-])O[C@@H](n2ccc(N)nc2=O)[C@H](OC(=O)C(C)C)[C@@H]1OC(=O)C(C)C [4’CN-CTP, 4′-CN-CTP]","Rate of incorporation (% of natural dNTP or NTP), mtRNA polymerase",[1],112% ± 10%
"Nc1ncn([C@H]2C[C@H](O)[C@@H](COP(=O)(O)OP(=O)(O)OP(=O)(O)O)O2)c(=O)n1 [5-aza-2′-dCTP, 5-aza-2′-deoxyCTP]","Rate of incorporation (% of natural dNTP or NTP), DNA polymerase γ",[4],79% ± 8%
"O=c1[nH]cc(F)c(=O)[nH]1 [5-fluorouracil, reference compound]",CC50,in vitro [5],2.2 ± 0.6 µM
"O=C(N[C@H](CO)[C@H](O)c1ccc([N+](=O)[O-])cc1)C(Cl)Cl [Chloramphenicol, chloramphenicol, reference compound]",CC50 at 5 days,[6],2.6 ± 0.6 µM
same,CC50 at 5 days,[7],> 25 µM
same,CC50 at 5 days,[8],14.1 ± 3.6 µM
same,CC50 at 3 day,[9]; 3-day CC50 Cellular ATP,> 50 µM
same,CC50 at 3 day,[9]; 3-day CC50 Total DNA content,> 50 µM
same,CC50 at 3 day,[9]; [23],4.8 ± 1.3 µM
N#C[C@@]1(c2ccc3c(N)ncnn23)O[C@H](CO)[C@@H](O)[C@H]1O [GS-441524],CC50 at 3 day,[10],> 100 µM
same,CC50 at 3 days,[10],> 100 µM
same,CC50 at 3 days,[10]; pH 7.4,> 100 µM
same,CC50 at 5 days,[6],> 100 µM
same,CC50 at 5 days,[7],> 100 µM
same,CC50 at 5 days,[8],> 100 µM
same,CC50 at 3 day,[11]; 3-day CC50 Cellular ATP,> 100 µM
same,CC50 at 3 day,[11]; 3-day CC50 Total DNA content,> 100 µM
same,CC50 at 3 day,[11]; [23],> 100 µM
same,effect on mtDNA content (in words),[12],overall minimal
same,CC50,PC-3,> 100 µM
same,CC50,in vitro [5],11.7 ± 9.6 µM
same,CC50 at 3 day,[13]; 3-day CC50 Cellular ATP,> 100 µM
same,CC50 at 3 day,[13]; 3-day CC50 Total DNA content,> 100 µM
same,CC50 at 3 day,[13]; [23],> 100 µM
same,CC50,HepG2,> 100 µM
same,CC50 at 5 days,in vitro [14],> 100 µM
same,CC50 at 5 days,in vitro [15],> 100 µM
same,CC50 at 3 day,[9]; 3-day CC50 Cellular ATP,> 100 µM
same,CC50 at 3 day,[9]; 3-day CC50 Total DNA content,> 100 µM
same,CC50 at 3 day,[9]; [23],> 100 µM
"[H]/N=C(/N)N/C(=N/[H])NCCc1ccccc1 [Phenformin, phenformin, reference compound]",CC50 at 3 day,[10],9.7 ± 4.5 µM
same,CC50 at 3 days,[10],22.1 ± 1.9 µM
same,CC50 at 3 days,[10]; pH 7.4,1.9 ± 0.5 µM
"CCC(CC)COC(=O)[C@H](C)N[P@](=O)(OC[C@H]1O[C@@](C#N)(c2ccc3c(N)ncnn23)[C@H](O)[C@@H]1O)Oc1ccccc1 [RDV, Remdesivir]","adverse events of increased amino transferase levels, including ALT, AST, or both",[16],6 % of subjects
same,CC50 at 3 day,[10],7.8 ± 2.2 µM
same,CC50 at 3 days,[10],13.4 ± 1.7 µM
same,CC50 at 3 days,[10]; pH 7.4,7.6 ± 1.9 µM
same,CC50 at 5 days,[6],8.9 ± 1.1 µM
same,CC50 at 5 days,[7],8.6 ± 1.3 µM
same,CC50,Stimulated PBMC,14.8 ± 5.8 µM
same,adverse events of elevations in ALT,[17]; 5-day RDV treatment,6%
same,adverse events of elevations in AST,[17]; 5-day RDV treatment,5%
same,adverse events of elevations in ALT,[17]; 10-day RDV treatment,8%
same,adverse events of elevations in AST,[17]; 10-day RDV treatment,7%
same,CC50 at 5 days,[8],11.3 ± 3.3 µM
same,CC50 at 3 day,[11]; 3-day CC50 Cellular ATP,7.9 ± 0.1 µM
same,CC50 at 3 day,[11]; 3-day CC50 Total DNA content,6.3 ± 0.9 µM
same,CC50 at 3 day,[11]; [23],10.6 ± 0.1 µM
same,effect on mtDNA content (in words),[12],lack of dose response
same,enhancement of cytotoxicity by aerobic conditions,[18],6 fold
same,decrease in cell viability,"HepG2 cells; 100 μM, 24-h incubation",60%
same,increase in ROS levels,"HepG2 cells; 100 μM, 24-h incubation, vs DMSO control",60%
same,effect on ROS levels,"HepG2 cells; 3.1 to 50 μM, 24-h incubation",no significant increase in ROS levels; also recorded: no effect on ROS
same,CC50,in vitro [5],5.1 ± 2.3 µM
same,CC50 at 3 day,[13]; 3-day CC50 Cellular ATP,16.9 ± 4.1 µM
same,CC50 at 3 day,[13]; 3-day CC50 Total DNA content,14.3 ± 3.3 µM
same,CC50 at 3 day,[13]; [23],7.3 ± 2.7 µM
same,treatment-emergent grade 1 or 2 ALT elevations,[19]; [24],50%
same,treatment-emergent grade 1 or 2 AST elevations,[19]; [24],44%
same,plasma Cmax,[19]; [25],"2,720 ng/ml"
same,t1/2,[19]; [25],1.11 h
same,Cmax,"[19]; read-out: plasma Cmax, humans, repeated dosing of 150 mg",4.5 µM
same,"Grade 3 or 4 adverse events, ALT",[20]; 5-day RDV,2%
same,"Grade 3 or 4 adverse events, AST",[20]; 5-day RDV,3%
same,adverse events of elevations in ALT,[20]; 5-day RDV,34%
same,adverse events of elevations in AST,[20]; 5-day RDV,32%
same,"Grade 3 or 4 adverse events, ALT",[20]; 10-day RDV,3%
same,"Grade 3 or 4 adverse events, AST",[20]; 10-day RDV,1%
same,adverse events of elevations in ALT,[20]; 10-day RDV,32%
same,adverse events of elevations in AST,[20]; 10-day RDV,32%
same,CC50 at 5 days,in vitro [15],1.4 ± 0.1 µM
same,CC50,[21],11.1 ± 1.2 µM
same,CC50 at 3 day,[9]; 3-day CC50 Cellular ATP,24 ± 1.4 µM
same,CC50 at 3 day,[9]; [23],2.5 ± 0.1 µM
same,EC50,[22],0.0099 µM
"CC1=CC(=O)c2ccccc2C1=O [menadione, reference compound]",increase in ROS levels,HepG2 cells; 30-minute incubation (100 or 200 μM),> 3 fold
